# Reference: patent US20210007347A1, “COMPOSITIONS AND METHODS FOR PRESERVING ORGAN TRANSPLANTS” (FIRSTSTRING RESEARCH, INC., priority 2019, published 2021)
# Key:
# Pig kidneys = experiment: Pig kidney ex vivo perfusion model
# Method: Pig kidneys were harvested and flushed with cold HTK solution, and then underwent 18 hours of cold static storage in HTK solution. At 18 hours, the kidneys were placed on a perfusion pump and perfused in cold HTK solution with or without 1 μM ACT1 (500 μL/mL). The control kidney in each pair was perfused with cold HTK and its pair was perfused with cold HTK supplemented with ACT1. While on pump, the resistance values were recorded and samples were collected of the perfusate solution every 30 minutes. At the end of 6 hours on the pump, kidneys were taken off of the pump and biopsies were collected and assessed for viability, function, and characteristics as described below.
# Tubular necrosis (in this study, a measure of cell death) was assessed by basic histology/pathology methods and subjective scoring. Overall epithelial cell death was determined using EpCam as the marker. The relative expression of Vcam and ICam were determined via RT-qPCR in biopsied tissue at the end of each perfusion pump run. LDH ([…] dehydrogenase) was measured as a marker of tissue injury and was quantified using a colorimetric assay.
# IL-8 = experiment: Pro-inflammatory cytokine (IL-8) release from pre-treated endothelial cells; assay type: cell-based; conditions: ECs pre-treated with UW solution comprising 50 μM or 100 μM ACT1 vs UW solution only; FIG. 1B
# Method: (§1) Endothelial cells (EC) were pre-treated with University of Wisconsin (UW) solution only, or UW solution comprising 50 μM or 100 μM ACT1. Cold storage and reperfusion injury, pro-inflammatory cytokine release, and gap junction stabilization (Cx43 expression) were measured.
# Aortic allografts = experiment: Aortic allograft transplantation, chronic rejection; assay type: in vivo, Balb/c donors, B6 recipients
# Method: Aortic allografts were stored for 6 hours or 24 hours, and assessed on Day 28 after transplantation for neointimal hyperplasia (a hallmark of chronic rejection) and T cell infiltration.
# Cx43 = experiment: Gap junction stabilization (Cx43 expression) in pre-treated endothelial cells; assay type: cell-based; conditions: ACT1 pretreatment in UW solution; 1 hour and 24 hours post reperfusion; FIG. 1C
# Method: as §1
# Balb/c donor hearts = experiment: Allogenic heart transplantation model with static cold storage of donor hearts; assay type: in vivo, Balb/c donors, B6 recipients; conditions: donor hearts cold stored 6 h at 4° C. in UW solution with ACT1 vs UW alone
# Endothelial cells (EC) = experiment: Cold storage and reperfusion injury of pre-treated endothelial cells, measured by electrical resistance; assay type: cell-based; conditions: ECs pre-treated with UW solution comprising 50 μM or 100 μM ACT1 vs UW solution only; 1, 3, 12 and 24 hours post-treatment; FIG. 1A
# Method: as §1
# [1] = biopsied tissue at end of perfusion with ACT1-augmented HTK solution vs HTK, FIG. 7
sequence,measurement,setting,value
RQPKIWFPNRRKPWKKRPRPDDLEI [ACT1],change in vascular renal resistance,"Pig kidneys; 18 h cold static storage in HTK, then 6 hours pump perfusion in cold HTK with 1 μM ACT1 vs without, matched kidney donor pairs #1 and #2, FIGS. 4A, 4B, 5A, 5B",prevents change in vascular renal resistance
same,"tubular necrosis (histology, subjective scoring)","Pig kidneys; 18 h cold static storage in HTK, then 6 hours pump perfusion in cold HTK with 1 μM ACT1 vs without, matched kidney donor pairs #1 and #2, FIGS. 4C, 5C",reduces tubular necrosis
same,endothelial cell activation as measured by Icam expression (RT-qPCR),Pig kidneys; [1],decreases endothelial cell activation
same,endothelial cell activation as measured by Vcam expression (RT-qPCR),Pig kidneys; [1],decreases endothelial cell activation
same,"LDH activity (marker of tissue injury, colorimetric assay)","Pig kidneys; cold HTK perfusion with 1 μM ACT1 vs without, paired marginal kidneys, FIG. 6",decreases LDH activity
same,IL-8 release from the ECs,IL-8,significantly reduced
same,percent intimal expansion,"Aortic allografts; 28 days post-treatment, including aortas stored for 24 hours, FIG. 3B",significantly reduced
same,neointimal hyperplasia following aorta transplantation,"Aortic allografts; aortic allografts stored 6 hours or 24 hours, assessed on Day 28 after transplantation, FIG. 3A",ameliorates
same,Cx43 expression,Cx43,increased
same,number of macrophages (MAC-3+ cells),Balb/c donor hearts; FIG. 2C,significantly reduced
same,number of neutrophils (GR1+ cells),Balb/c donor hearts; FIG. 2C,significantly reduced
same,IRI as measured by cardiac troponin I,Balb/c donor hearts; FIG. 2D,significantly reduced
same,IRI as measured by cumulative histology score,Balb/c donor hearts; FIG. 2D,significantly reduced
same,cold storage and reperfusion injury as measured by electrical resistance,Endothelial cells (EC),prevented cold storage and reperfusion injury
